How the values were obtained:
[1] = Antiproliferative activity against human SKNO-1 cells incubated for 72 hrs by CCK8 assay; format: functional, cell-based; conditions: SKNO-1, 72 h
U-937 = assay: Antiproliferative activity against human U-937 cells incubated for 72 hrs by CCK8 assay; format: functional, cell-based; conditions: U-937, 72 h
Kasumi 1 = assay: Antiproliferative activity against human Kasumi 1 cells incubated for 72 hrs by CCK8 assay; format: functional, cell-based; conditions: Kasumi 1, 72 h
HL-60 = assay: Antiproliferative activity against human HL-60 cells incubated for 72 hrs by CCK8 assay; format: functional, cell-based; conditions: HL-60, 72 h
[2] = molecular target: Cyclin-dependent kinase 9 (Homo sapiens, UniProt P50750); assay: Inhibition of CDK9 (unknown origin) preincubated for 20 mins followed by [gamma-33P]ATP addition measured after 120 mins in presence of ATP by Hot-SpotSM kinase assay
Sequence of Cyclin-dependent kinase 9 (P50750 whole entry): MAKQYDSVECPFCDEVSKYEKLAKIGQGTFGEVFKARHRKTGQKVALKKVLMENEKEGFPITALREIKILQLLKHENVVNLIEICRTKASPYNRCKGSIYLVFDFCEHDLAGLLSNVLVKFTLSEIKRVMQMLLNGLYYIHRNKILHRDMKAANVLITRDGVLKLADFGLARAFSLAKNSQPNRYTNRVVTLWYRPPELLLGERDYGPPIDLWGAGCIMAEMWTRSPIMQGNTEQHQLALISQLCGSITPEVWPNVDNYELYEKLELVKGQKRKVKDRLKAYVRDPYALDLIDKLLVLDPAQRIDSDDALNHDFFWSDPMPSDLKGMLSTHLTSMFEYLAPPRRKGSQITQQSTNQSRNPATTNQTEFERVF

Row | SMILES | IC50 (U-937) | IC50 (HL-60) | IC50 [2] | IC50 [1] | IC50 (Kasumi 1)
1 | O=C(CCCCCNC(=O)c1n[nH]cc1NC(=O)c1c(Cl)cccc1Cl)NO | > 10 µM | > 10 µM | < 0.1 µM | > 10 µM | > 10 µM
2 | O=C(CCNC(=O)c1ccc(NC(=O)c2n[nH]cc2NC(=O)c2c(F)cccc2F)cc1)NO | > 10 µM | > 10 µM | < 0.1 µM | 5.97 µM | 8.81 µM
3 | O=C(CCCNC(=O)c1ccc(NC(=O)c2n[nH]cc2NC(=O)c2c(F)cccc2F)cc1)NO | > 10 µM | > 10 µM | < 0.1 µM | > 10 µM | 5.6 µM
4 | O=C(CNC(=O)c1n[nH]cc1NC(=O)c1c(Cl)cccc1Cl)NO | > 10 µM | > 10 µM | < 0.1 µM | > 10 µM | > 10 µM
5 | Cc1cc(N)c(NC(=O)c2ccc(NC(=O)c3n[nH]cc3NC(=O)c3c(F)cccc3F)cc2)cc1C | > 10 µM | > 10 µM | < 0.1 µM | 6.89 µM | > 10 µM
6 | O=C(CCCNC(=O)c1ccc(NC(=O)c2n[nH]cc2NC(=O)c2c(Cl)cccc2Cl)cc1)NO | > 10 µM | > 10 µM | < 0.1 µM | > 10 µM | > 10 µM
7 | O=C(CCNC(=O)c1n[nH]cc1NC(=O)c1c(Cl)cccc1Cl)NO | > 10 µM | 10 µM | < 0.1 µM | > 10 µM | 3.87 µM
8 | O=C(CCCCNC(=O)c1n[nH]cc1NC(=O)c1c(Cl)cccc1Cl)NO | > 10 µM | > 10 µM | < 0.1 µM | > 10 µM | > 10 µM
9 | O=C(CCCCCNC(=O)c1ccc(NC(=O)c2n[nH]cc2NC(=O)c2c(Cl)cccc2Cl)cc1)NO | > 10 µM | > 10 µM | < 0.1 µM | > 10 µM | > 10 µM
10 | O=C(CCCCCN1CCC(NC(=O)c2n[nH]cc2NC(=O)c2c(F)cccc2F)CC1)NO | > 10 µM | 1.81 µM | < 0.1 µM | > 10 µM | > 10 µM
11 | Nc1cc(Br)c(Br)cc1NC(=O)c1ccc(NC(=O)c2n[nH]cc2NC(=O)c2c(F)cccc2F)cc1 | > 10 µM | > 10 µM | < 0.1 µM | > 10 µM | > 10 µM

Further lines, with some results ahead:

Row | IC50 (U-937) | IC50 (HL-60) | IC50 [2] | SMILES | IC50 [1] | IC50 (Kasumi 1)
12 | > 10 µM | > 10 µM | < 0.1 µM | O=C(CCNC(=O)c1ccc(NC(=O)c2n[nH]cc2NC(=O)c2c(Cl)cccc2Cl)cc1)NO | > 10 µM | > 10 µM
13 | > 10 µM | > 10 µM | < 0.1 µM | O=C(CNC(=O)c1ccc(NC(=O)c2n[nH]cc2NC(=O)c2c(F)cccc2F)cc1)NO | > 10 µM | > 10 µM
14 | 8.52 µM | > 10 µM | < 0.1 µM | O=C(CCCCNC(=O)c1ccc(NC(=O)c2n[nH]cc2NC(=O)c2c(Cl)cccc2Cl)cc1)NO | > 10 µM | > 10 µM
15 | 0.94 µM | 1.16 µM | < 0.1 µM | O=C(CN1CCC(NC(=O)c2n[nH]cc2NC(=O)c2c(Cl)cccc2Cl)CC1)NO | 1.54 µM | 1.54 µM
16 | 1.83 µM | 1.1 µM | < 0.1 µM | O=C(CCCCN1CCC(NC(=O)c2n[nH]cc2NC(=O)c2c(Cl)cccc2Cl)CC1)NO | 2.32 µM | 3.72 µM
17 | 0.91 µM | 1.54 µM | < 0.1 µM | O=C(CCN1CCC(NC(=O)c2n[nH]cc2NC(=O)c2c(Cl)cccc2Cl)CC1)NO | 1.67 µM | 1.38 µM
18 | 5.6 µM | > 10 µM | < 0.1 µM | Nc1ccccc1NC(=O)c1ccc(NC(=O)c2n[nH]cc2NC(=O)c2c(F)cccc2F)cc1 | 2.65 µM | 3.1 µM
19 | 5.92 µM | 9.76 µM | < 0.1 µM | Nc1cc(Cl)c(Cl)cc1NC(=O)c1ccc(NC(=O)c2n[nH]cc2NC(=O)c2c(Cl)cccc2Cl)cc1 | 5.54 µM | 8.42 µM

— ChEMBL document CHEMBL5346903, “Discovery of novel and bioavailable histone deacetylases and cyclin-dependent kinases dual inhibitor to impair the stemness of leukemia cells” (Eur J Med Chem, 2023)
